Measurements as given in US7504508B2, “PGD2 receptor antagonists for the treatment of inflammatory diseases” (Millennium Pharmaceuticals, Inc., priority 2002, dated 2009).

Target: T1, cloned human CRTH2 receptor (Homo sapiens, UniProt Q9Y5Y4)
T1 construct: purchased Biosignal; host or cells: HEK-293 cells stably expressing human CRTH2 and G-alpha-16 (membranes)
T1 sequence (Q9Y5Y4 1-395): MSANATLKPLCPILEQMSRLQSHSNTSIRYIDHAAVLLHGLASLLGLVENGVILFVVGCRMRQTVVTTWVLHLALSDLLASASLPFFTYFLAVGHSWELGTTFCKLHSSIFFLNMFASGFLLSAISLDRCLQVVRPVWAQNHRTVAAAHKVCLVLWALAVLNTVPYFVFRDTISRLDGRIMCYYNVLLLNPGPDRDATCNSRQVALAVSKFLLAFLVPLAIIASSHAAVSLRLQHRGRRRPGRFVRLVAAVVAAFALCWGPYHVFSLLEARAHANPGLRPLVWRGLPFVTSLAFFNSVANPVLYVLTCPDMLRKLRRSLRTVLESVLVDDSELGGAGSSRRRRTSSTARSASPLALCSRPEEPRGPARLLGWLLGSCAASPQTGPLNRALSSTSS
Test: Radioligand membrane binding assay: inhibition of [3H] PGD2 binding to CRTH2 (Scintillation Proximity Assay)
Details: inhibition of [3H] PGD2 binding to membranes of HEK-293 cells stably expressing human CRTH2; SPA; 10 point curve from 10 μM; room temperature, approximately 2 hours
Procedure, shortened: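 Scintillation proximity binding of [3H] PGD2 (at KD or lower) to membranes of HEK-293 cells stably expressing human CRTH2, in 50 mM Tris-HCl pH 7.5, 5 mM MgCl2, 1 mM EDTA. Ten-point 3-fold series from 10 μM final, ~2 h at room temperature; cold PGD2 defines NSB; percent inhibition, duplicate runs (n=2).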

Row | SMILES | Ki [µM]
1 | COc1ccc(C(=O)N2c3ccccc3[C@H](N(C(C)=O)c3ccc(C(=O)O)cc3)C[C@@H]2C)cc1 [Compound C-37, (2S,4R)-4-{Acetyl-[1-(4-methoxy-benzoyl)-2-methyl-1,2,3,4-tetrahydro-quinolin-4-yl]-amino}-benzoic acid] | < 10
2 | COc1ccc(C(=O)N2c3ccccc3[C@H](N(C(C)=O)c3cccc(CN)c3)C[C@@H]2C)cc1 [Compound C-38, (2S,4R)-N-(3-Aminomethyl-phenyl)-N-[1-(4-methoxy-benzoyl)-2-methyl-1,2,3,4-tetrahydro-quinolin-4-yl]-acetamide] | < 10
3 | COc1ccc(C(=O)N2c3ccccc3[C@H](N(C(C)=O)c3ccc(C(C)(C)C(=O)O)cc3)C[C@@H]2C)cc1 [Compound D-1, (2S,4R)-2-(4-{Acetyl-[1-(4-methoxy-benzoyl)-2-methyl-1,2,3,4-tetrahydro-quinolin-4-yl]-amino}-phenyl)-2-methyl-propionic acid] | < 10
4 | COc1ccc(C(=O)N2c3ccccc3[C@H](N(C(C)=O)c3ccc(C(=O)CCC(=O)O)c(Cl)c3)C[C@@H]2C)cc1 [Compound D-2, (2S,4R)-4-(4-{Acetyl-[1-(4-methoxy-benzoyl)-2-methyl-1,2,3,4-tetrahydro-quinolin-4-yl]-amino}-2-chloro-phenyl)-4-oxo-butyric acid] | < 10
5 | COc1ccc(C(=O)N2c3ccccc3[C@H](N(C(C)=O)c3ccc(CCC(=O)O)cc3)C[C@@H]2C)cc1 [Compound D-6, (2S,4R)-3-(4-{Acetyl-[1-(4-methoxy-benzoyl)-2-methyl-1,2,3,4-tetrahydro-quinolin-4-yl]-amino}-phenyl)-propionic acid] | < 10
6 | COc1ccc(C(=O)N2c3ccccc3[C@H](N(C(C)=O)c3ccc(OCC(=O)O)cc3)C[C@@H]2C)cc1 [Compound D-10, (2S,4R)-(4-{Acetyl-[1-(4-methoxybenzoyl)-2-methyl-1,2,3,4-tetrahydro-quinolin-4-yl]-amino}-phenoxy)-acetic acid] | < 10

Continued, values first:

Row | Ki [µM] | SMILES
7 | < 60 | COc1cccc(C(=O)N2c3ccccc3C(N(C(C)=O)c3ccccc3)CC2(C)C)c1 (centres unmarked) [Compound F-1, N-[1-(3-Methoxy-benzoyl)-2,2-dimethyl-1,2,3,4-tetrahydro-quinolin-4-yl]-N-phenyl-acetamide]
8 | < 10 | COc1cccc(C(=O)N2CCC(N(C(C)=O)c3ccccc3)c3ccccc32)c1 (centres unmarked) [Compound F-3, N-[1-(3-Methoxy-benzoyl)-1,2,3,4-tetrahydro-quinolin-4-yl]-N-phenyl-acetamide]
